# Patent US20040254238A1, “Bone growth stimulation with NO/statin and other NO modulating combinations” (OSTEOSCREEN, priority 2003, published 2004)
# Assays:
# [1] = test system: bone mass; conditions: Horiuchi et al. 2001, Kinoshita et al. 2000; cited from earlier work
# [2] = test system: three month old S-D rats; assay: Bone mineral density in rats treated orally by gavage for 16 weeks; type: in vivo, rat; conditions: oral gavage, S-D rats (FIG. 4 lower panel)
# Description: Statin equivalence: 100 mg/kg/day=0.72 mg/day; 400 mg/kg/day=2.9 mg/day; and 800 mg/kg/day=5.8 mg/day.
# In this experiment, experimental groups of three month old S-D rats were used. Food was removed from the cages 6 hours prior to dosing. The animals were then treated orally by gavage once a day with vehicle (0.5% methylcellulose), lovastatin, or OsteoPure™ (lovastatin-containing reduced rice extract). OsteoPure™ was administered at 100, 400, or 800 mg/kg/day five days a week for 16 weeks. The statin equivalence in OsteoPure™ is 100 mg/kg/day=0.72 mg/day; 400 mg/kg/day=2.9 mg/day; and 800 mg/kg/day=5.8 mg/day. Rats were weighed weekly. Bone mineral density (BMD) were analyzed every four weeks. In the upper panel, the bone mineral densities (BMDs) are shown. In the lower panel, the % change in BMDs of the experimental over the 16 weeks is shown. […] This trend is confirmed in the long term analysis of percent change in BMDs shown in the lower panel.
# [3] = test system: bone resorption; conditions: lipid clearing agents; Wang et al. 1995; cited from earlier work
# [4] = test system: osteoprogenitor cells; conditions: cells treated with dexamethasone in vitro; Cui et al. 1996; cited from earlier work
# [5] = test system: neonatal murine calvaria; conditions: L-arginine alone, 20 μM
# Description: Selected compounds and appropriate controls were assayed in vitro (ex vivo) for bone formation activity (described above in “In Vitro Neonatal Mouse Calvaria Assay”). Histomorphometrical assessments of ex vivo calvaria were carried out using an OsteoMetrics bone morphometry measurement program, according to the manufacturer's instructions. Measurements were determined using either a 10- or 20-fold objective with a standard point counting eyepiece graticule.
# [6] = test system: rats; conditions: injected locally into the subcutaneous tissues of rats; Wozney 1992; cited from earlier work
molecule,measurement,setting,value
CC(=O)CCCCn1c(=O)c2c(ncn2C)n(C)c1=O [pentoxifylline],bone mass,[1],increase bone mass by promoting bone formation
CC[C@H](C)C(=O)O[C@H]1C[C@@H](C)C=C2C=C[C@H](C)[C@H](CC[C@@H]3C[C@@H](O)CC(=O)O3)[C@H]21 [lovastatin],"percent change in BMDs over 16 weeks, co-administered with L-arginine relative to the agent alone",[2],greater increase in BMDs
same,bone resorption induced by steroid administration,[3],inhibit bone resorption induced by steroid administration
same,triglyceride vesicles in osteoprogenitor cells,[4],diminished triglyceride vesicles
COc1ccc(C2CNC(=O)C2)cc1OC1CCCC1 (stereo not shown) [rolipram],bone mass,[1],increase bone mass by promoting bone formation
N=C(N)NCCC[C@H](N)C(=O)O [L-arginine],bone formation,[5],induces bone formation
"BMP-4: recombinant bone morphogenic protein (protein, UniProt P12644 293-408, looked up) Bone morphogenetic protein 4: SPKHHSQRARKKNKNCRRHSLYVDFSDVGWNDWIVAPPGYQAFYCHGDCPFPLADHLNSTNHAIVQTLVNSVNSSIPKACCVPTELSAISMLYLDEYDKVVLKNYQEMVVEGCGCR",new bone formation,[6],can induce new bone formation
